How the values were obtained:
[1] = Stability in rat liver microsomes at 2 uM measured upto 30 mins in presence of NADPH by LC-MS/MS analysis; assay type: ADME, Microsome; details: read-out: Stability
[2] = Clearance in dog at 1 mg/kg, iv by LC-MS/MS analysis; assay type: ADME, organism-based, Canis lupus familiaris; details: in vivo
[3] = Bioavailability in rat; assay type: ADME, organism-based; details: in vivo
[4] = Stability in dog liver microsomes at 2 uM measured upto 30 mins in presence of NADPH by LC-MS/MS analysis; assay type: ADME, Canis lupus familiaris, Microsome; details: read-out: Stability
[5] = Stability in human liver microsomes at 2 uM measured upto 30 mins in presence of NADPH by LC-MS/MS analysis; assay type: ADME, Microsome; details: read-out: Stability
[6] = Clearance in rat at 2 mg/kg, iv by LC-MS/MS analysis; assay type: ADME, organism-based; details: in vivo
[7] = Volume of distribution at steady state in dog at 1 mg/kg, iv by LC-MS/MS analysis; assay type: ADME, organism-based, Canis lupus familiaris; details: in vivo, read-out: Vdss
[8] = Volume of distribution at steady state in rat at 2 mg/kg, iv by LC-MS/MS analysis; assay type: ADME, organism-based; details: in vivo, read-out: Vdss
[9] = Lipophilicity, log P of the compound; assay type: physicochemical; details: octanol/water
[10] = Permeability in MDCK cells; assay type: ADME, cell-based, Canis lupus familiaris; details: dog, read-out: permeability
[11] = Ratio of free drug concentration in CSF to plasma of dog; assay type: ADME, Canis lupus familiaris; details: CSF and plasma
[12] = Stability in mouse liver microsomes at 2 uM measured upto 30 mins in presence of NADPH by LC-MS/MS analysis; assay type: ADME, Microsome; details: read-out: Stability
[13] = Dissociation constant, pKa of compound; assay type: physicochemical
[14] = Drug accumulation in human HepG2 cells lysosomes assessed as maximum fluorescence response after 24 hrs by Lysotracker Green DND-26 dye based assay; assay type: ADME, cell-based; details: hepg2, 24 h
[15] = Oral clearance in human; assay type: ADME
clinical = details: human, CSF and plasma

Row | SMILES | remaining at 0.5 h, 2 µM [1] | clearance [2] | bioavailability [3] | remaining at 0.5 h, 2 µM [4] | remaining at 0.5 h, 2 µM [5] | clearance [6] | Vd [7] | Vd [8] | logP [9] | Papp [10] | Kp uu [11] | remaining at 0.5 h, 2 µM [12] | pKa [13] | Rmax [14] | CL/F [15] | Kp uu (clinical)
1 | NC1=N[C@@]2(c3cc(NC(=O)c4ncc(F)cc4F)ccc3F)CN(c3ncc(F)cn3)C[C@H]2CS1 | 7% | 2.7 mL/min/kg | 55% | 7% | 13% | 15 mL/min/kg | 0.52 L/kg | 2.2 L/kg | 2.8 | 30 ×10⁻⁶ cm/s | 0.2 | 22% | 7.7 |  |  | 
2 | Cl.NC1=N[C@@]2(c3ccns3)CN(c3ncc(F)cn3)C[C@H]2CS1 |  | 6 mL/min/kg |  |  |  | 53.2 mL/min/kg | 2.1 L/kg | 2.87 L/kg | 1.3 | 59 ×10⁻⁶ cm/s | 1 |  | 6.4 | 20 |  | 
3 | Cl.N#Cc1ccc([C@]23CN(c4ncc(F)cn4)C[C@H]2CSC(N)=N3)s1 |  |  |  |  |  |  |  |  | 2.3 |  |  |  | 6.6 | 91 |  | 
4 | COc1cnc(C(=O)Nc2ccc(F)c([C@]34CN(c5ncc(F)cn5)C[C@H]3CSC(N)=N4)c2)cn1 | 7% | 5.2 mL/min/kg | 47% | 50% | 12% | 20 mL/min/kg | 0.78 L/kg | 5.2 L/kg | 3.2 | 19 ×10⁻⁶ cm/s | 0.9 | 27% | 7.6 |  | 26 mL/min/kg | 1
5 | C[C@@H]1C[C@H]1COC(C)(C)[C@@H]1C[C@H]1[C@]12CN(c3ncccn3)C[C@H]1CSC(N)=N2 | 98% |  |  | 79% | 31% |  |  |  |  | 36 ×10⁻⁶ cm/s |  | 98% |  |  |  | 
6 | C[C@@H]1C[C@H]1CNC(=O)[C@@H]1C[C@H]1[C@]12CN(c3ncccn3)C[C@H]1CSC(N)=N2 | 55% |  |  | 28% | 13% |  |  |  | 2 | 8 ×10⁻⁶ cm/s |  | 33% | 8 |  |  | 
7 | C[C@@H]1C[C@H]1CNC(=O)[C@@H]1C[C@H]1[C@]12COC[C@H]1CSC(N)=N2 | 84% |  |  | 8% | 19% |  |  |  | 0.8 | 14 ×10⁻⁶ cm/s |  | 23% | 8 |  |  | 
8 | Cl.Cl.NC1=N[C@@]2(c3cccs3)CN(c3ncccn3)C[C@H]2CS1 |  |  |  |  |  |  |  |  | 1.9 | 59 ×10⁻⁶ cm/s |  |  | 7.6 |  |  | 
9 | Cl.NC1=N[C@@]2(c3cnccn3)CN(c3ncc(F)cn3)C[C@H]2CS1 |  |  |  |  |  |  |  |  | 0.8 | 54 ×10⁻⁶ cm/s |  |  | 7.1 | 59 |  | 
10 | Cl.NC1=N[C@@]2(c3cccs3)CN(c3ncc(F)cn3)C[C@H]2CS1 |  |  |  |  |  |  |  |  | 2.4 | 60 ×10⁻⁶ cm/s |  |  | 7.5 | 4090 |  | 
11 | NC1=N[C@@]2(c3cc(NC(=O)c4ccc(F)cn4)ccc3F)CN(c3ncc(F)cn3)C[C@H]2CS1 (relative stereo) | 16% | 1.6 mL/min/kg | 72% | 8% | 13% | 7.8 mL/min/kg | 1.1 L/kg | 2.5 L/kg | 3.1 | 33 ×10⁻⁶ cm/s | 0.1 | 25% | 7.9 |  |  | 
12 | C[C@@]1(c2cc(-c3cncnc3)c(F)cc2F)CCSC(N)=N1 [LY-2811376] |  |  |  |  |  |  |  |  | 2.9 | 60 ×10⁻⁶ cm/s |  |  | 8.8 | 3364 |  | 
13 | NC1=N[C@@]2(c3cc(NC(=O)c4ccc(F)cn4)ccc3F)COC[C@H]2CS1 [LY-2886721] | 19% | 4.9 mL/min/kg | 30% | 0% | 11% | 94 mL/min/kg | 2.3 L/kg | 10.4 L/kg | 2.1 | 55 ×10⁻⁶ cm/s | 0.9 | 33% | 7.7 | 7863 |  | 

From ChEMBL document CHEMBL5033995, “Discovery and Early Clinical Development of LY3202626, a Low-Dose, CNS-Penetrant BACE Inhibitor” (J Med Chem, 2021)
